US20140378541A1, “Synthetic Epigallocatechin Gallate (EGCG) Analogs” (WAYNE STATE UNIVERSITY, priority 2011, published 2014)
Residue numbers refer to the chain shown, from its start. Like-named read-outs stand apart in the source and are kept apart here.

Assays:
[1] = biological target: T1, purified rabbit 20S proteasome (Oryctolagus cuniculus, UniProt G1T4Q9); assay: Inhibition of chymotrypsin-like activity of purified 20S proteasome; assay type: biochemical; settings: for inhibition of proteasomal chymotryptic activity (in words): even at a concentration of 50 μM; for proteasomal inhibition (in words): purified 20S proteasome, concentration not stated
T1 sequence (G1T4Q9 60-263): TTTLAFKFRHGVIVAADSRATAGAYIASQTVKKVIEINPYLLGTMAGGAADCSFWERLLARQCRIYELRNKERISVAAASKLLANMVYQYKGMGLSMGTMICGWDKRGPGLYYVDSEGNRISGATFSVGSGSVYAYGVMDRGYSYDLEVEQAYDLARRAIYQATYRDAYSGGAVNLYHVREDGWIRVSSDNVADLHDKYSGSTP
Protocol: Purified 20S proteasome was incubated with compound 5, 7, 16, or 21 (A) or MDA-MB-231 cell extract (5.7 μg) was incubated with compound 6, 8, 17, or 22 (B) at indicated concentrations for 2 hours, followed by measuring the proteasomal chymotrypsin-like activity. EGCG was used as a comparative standard.
Purified rabbit 20S proteasome and fluorogenic substrate Suc-LLVY-AMC for the proteasomal chymotrypsin like (CT-like) activity were obtained from Calbiochem Inc. (San Diego, Calif.). Fetal bovine serum (FBS) was from Tissue Culture Biologicals (Tulare, Calif.). Penicillin and streptomycin were purchased from Invitrogen Co. (Carlsbad, Calif.). RPMI 1640 medium was purchased from Invitrogen Co. (Carlsbad, Calif.). MTT (3-4,5-dimethylthiazol-2-yl-2.5-diphenyl-tetrazolium bromide) was purchased from Sigma-Aldrich.
A purified rabbit 20S proteasome (35 ng) was incubated with 20 μM of substrate Suc-LLVY-AMC in 100 μl assay buffer (20 mM Tris-HCl, pH 7.5), in the presence of EGCG or EGCG analogs at different concentrations or the solvent for 2 h at 37° C., followed by measurement of hydrolysis of the fluorogenic substrates using a Wallac Victor3™ multi-label counter with 355-nm excitation and 460-nm emission wavelengths.

MDA-MB-231 cells = assay: Mammosphere formation assay; assay type: cell-based; settings: Homo sapiens, MDA-MB-231, 168 h, 7 days
Protocol: MDA-MB-231 cells were seeded in low attached 6-well plates (1000 cells/well) and treated with indicated concentrations of 23 and 30 for 7 days, followed by calculating numbers of mammosphere (A) and taking photos of mammosphere morphology (B). Metformin and EGCG were served as control. *, P<0.1; **, P<0.01. Columns, mean of three experiments; bars, SD.
Mammosphere formation assay was performed to assess the capacity of cancer stem cell self-renewal. Single cell suspensions of MDA-MB-231 cells were thoroughly suspended and plated on ultra low adherent wells of 6-well plates (Corning, Lowell, Mass.) at 1000 cells/well in 1.5 ml of sphere formation medium (1:1 DMEM/F12 medium supplemented with 50 units/ml penicillin, […] streptomycin, B-27 and N-2). One milliliter of sphere formation medium was added every 3-4 days. After 7 days of incubation with different concentrations of EGCG analogs 23, 30 or metformin, the formed spheres were collected by centrifugation at 300 g for 5 min and counted with an inverted phase-contrast Zeiss Axiovert 25 microscope.

[2] = system: human multiple myeloma ARP cells; assay: MTT assay in multiple myeloma ARP cells, alone or with Velcade; assay type: cell-based; settings: 48 h; for effect on cell proliferation when combined with Velcade: 20 μM plus varying doses of Velcade
Protocol: The cells were treated with Velcade™ alone or with 20 μM of compounds 5, 7 and 23 or in combination with varying doses of Velcade™ for 48 hrs, followed by a MTT assay.
Human multiple myeloma cells (Arp and Opm1) cells, kindly provided by Dr. Ramesh Batchu (Wayne State University), were grown in RPMI-1640 medium supplemented with 10% FBS, 100 units/ml of penicillin, and 100 μg/ml of streptomycin. Cells were maintained at 37° C. in 5% CO2 (Mujtaba T, et al., Int J Mol Med. (2012) 29(1):102-6).
(§1) Cells were grown in a 96-well plate. Triplicate wells of cells were treated with indicated concentrations of EGCG or EGCG analogs for 24 h. After aspiration of medium, MTT (1 mg/ml) was then added to the cell cultures, followed by incubation for 3 h at 37° C. After cells were crystallized, MTT was removed and DMSO was added to dissolve the metabolized MTT product. The absorbance was then measured on a Wallac Victor3 1420 Multi-label counter at 540 nm.

[3] = system: human multiple myeloma OPM1 cells; assay: MTT assay in multiple myeloma OPM1 cells, alone or with Velcade; assay type: cell-based; settings: 48 h
[4] = system: Human breast cancer MDA-MB-231 cells; assay: MTT cell proliferation assay in MDA-MB-231 cells; assay type: cell-based; settings: 24 h; for inhibition at 50 µM: Homo sapiens, MDA-MB-231
Protocol: Human breast cancer MDA-MB-231 cells were treated with 25 or 50 μM EGCG analogs for 24 hours, followed by MTT assay. Pro-EGCG was used as a comparison.
Human breast cancer MDA-MB-231 cells with high COMT activity were treated with 50 μM EGCG analogs for 24 hours in the absence or presence of 10 μM DNC, followed by MTT assay. Pro-EGCG was used as a comparison.
(§2) (A) EGCG analogs 23 and 30 inhibited breast cancer cell proliferation. MDA-MB-231 cells were treated with indicated concentrations of 23, 30 or metformin for 24 h, followed by a MTT assay. *, P<0.1; **, P<0.01. Columns, mean of three experiments; bars, SD. (B) EGCG analogs 23 and 30 activated AMPK at a dose-dependent manner, measured by elevated level of phosphor-AMPKα and its downstream proteins of phosphor-Raptor. […] MDA-MB-231 cells were treated with indicated concentrations of 23 or 30 for 3 h, followed by Western blot analysis with the indicated antibodies. The numbers underneath the Western results of p-AMPKα indicated normalized phosphor-AMPKα/β-actin ratios. […]
as §1

AMPK signaling = assay: AMPK activation, Western blot, MDA-MB-231 cells; assay type: cell-based, human; settings: 20 μM, 3 h; metformin 10 mM as comparison
Protocol: In FIG. 9A, human breast cancer MDA-MB-231 cells were treated with 20 μM of EGCG, Pro-EGCG and EGCG analogs (compounds 5, 7, 23, 30 and 31), or 10 mM of metformin for 3 hrs. Cell lysates were analyzed by Western blot using antibodies of anti-AMPK, p-AMPK, PARP, p-EGFR, EGFR or β-actin. In FIG. 9B, human breast cancer MDA-MB-231 cells were treated with 20 μM of EGCG analogs 23 and 30, 10 nM of docetaxel alone, or combined treatment with compounds 23 and 30 plus docetaxel for 24 hrs. Cell lysates were analyzed by Western blot using antibodies of anti-AMPK, p-AMPK, PARP, p-EGFR, EGFR or β-actin. In FIG. 9C, cells were incubated in medium (0.1% BSA without FBS) containing 20 μM of 23, 30, 2.5 μM of Erlotinib (Eb) alone or the combinations as indicated for 24 hrs. Cell lyses were analyzed by Western blot using antibodies of anti-AMPK, p-AMPK, PARP, p-EGFR, EGFR or β-actin.
as §2
A whole cell extract was prepared from the treated cells as described by Landis-Piwowar et al. Cancer Res. (2007) 67, 4303, Chen et al. Cancer Res. (2007) 67, 1636, and Chen et al. Biochem. Pharm. (2005) 69, 1421. Cell extracts (30 μg) were separated by an SDS-PAGE gel and transferred to nitrocellulose membranes. The membrances were blotted by specific antibodies including anti-AMPK, p-AMPK, EGFR, p-EGFR (Cell Signaling Tech., Danvers, Mass.), PARP (Enzo Life Sciences, Plymouth Meeting, Pa.), actin (Santa Cruz Biotechnology, Santa Cruz, Calif.). The membranes were visualized by enhanced chemiluminescence, as described previously by Landis-Piwowar et al. Cancer Res. (2007) 67, 4303, Chen et al. Cancer Res. (2007) 67, 1636, and Chen et al. Biochem. Pharm. (2005) 69, 1421.
The Western blot analysis was performed as follows: A whole cell extract was prepared from the treated cells as described previously (Landis-Piwowar et al., Cancer research, 2007, 67: 4303-4310; Chen et al., Cancer research, 2007, 67: 1636-1644; Chen et al., Biochemical pharmacology, 2005, 69: 1421-1432). The cell extracts (30 μg) were then separated by an SDS-PAGE gel and transferred to nitrocellulose membranes. The membrances were blotted by specific antibodies including anti-AMPK, p-AMPK, EGFR, p-EGFR (Cell Signaling Tech. Danvers, Mass.), PARP (Enzo Life Sciences, Plymouth Meeting, Pa.), actin (Santa Cruz Biotechnology, Santa Cruz, Calif.). The membranes were visualized by enhanced chemiluminescence, as described previously (Landis-Piwowar et al., Cancer research, 2007, 67: 4303-4310; Chen et al., Cancer research, 2007, 67: 1636-1644; Chen et al., Biochemical pharmacology, 2005, 69: 1421-1432).
In FIG. 9A, human breast cancer MDA-MB-231 cells were treated with 20 μM of EGCG, Pro-EGCG and other EGCG analogs (compounds 5, 7, 23, 30 and 31), or 10 mM of metformin for 3 hrs. Cell lysates were analyzed by Western blot using antibodies of anti-AMPK, p-AMPK, PARP, p-EGFR, EGFR or β-actin. In FIG. 9B, human breast cancer MDA-MB-231 cells were treated with 20 μM of EGCG analogs 23 and 30, 10 nM of docetaxel alone, or combined treatment with compounds 23 and 30 plus docetaxel for 24 hrs.

[5] = biological target: T2, proteasomal chymotrypsin-like activity of MDA-MB-231 cell extracts (Homo sapiens, UniProt P28074); assay: Proteasomal chymotrypsin-like activity in MDA-MB-231 cell lysate with high COMT activity; assay type: biochemical; settings: concentrations ranging between 1-10 μM, 2 h
T2 construct: endogenous in cells; host or cells: MDA-MB-231 human breast cancer cells (ATCC), cell extract
T2 sequence (P28074 60-263): T1 sequence (G1T4Q9 60-263) with D197E
Protocol: (A) MDA-MB-231 cell extracts (5.7 μg) were incubated with different concentrations of compound 5 or 7 or EGCG for 2 hours, followed by performance of proteasomal chymotrypsin-like activity assay. EGCG was used as a control. (B) MDA-MB-231 cell extracts (5.7 μg) were pre-treated with 10 μM DNC for 20 minutes, followed by co-incubation with compound 5, or 7 or EGCG for 2 h. The proteasomal chymotrypsin-like activity was measured.
Human breast cancer MDA-MB-231 cell lysate that contains high COMT activity were treated with varying concentrations of compound 5 or 7. […] Thus, consistent with previous reports EGCG is also susceptible to methylation by COMT (H., Lu, X. Meng, C. S. Yang, Drug Metabolism and Disposition; 31; 572, 2003).

In the case of `O=C(O[C@H]1Cc2ccccc2C[C@H]1O)c1cc(O)c(O)c(O)c1` [Compound 16], the “inhibition of proteasomal chymotryptic activity (in words)” value [1] was “did not inhibit”.
For `CC(=O)Oc1cc(OC(C)=O)cc(C(=O)O[C@H]2Cc3ccccc3C[C@H]2OC(C)=O)c1` [Compound 22], the “proteasomal inhibition (in words)” value [1] was “none”.
For `O=C(O[C@H]1Cc2ccccc2C[C@H]1OC(=O)c1cc(F)cc(F)c1)c1cc(F)cc(F)c1` [Compound 34], the melting point was 136 to 138 °C.
Compound `CN(C)C(=N)N=C(N)N` [metformin, reference compound] has an inhibition at 5000 µM (MDA-MB-231 cells; 5 mM) of 41.4% and an inhibition at 10000 µM (MDA-MB-231 cells; 10 mM) of 67.6%.
For `CC(=O)Oc1cc(C(=O)O[C@H]2Cc3ccccc3C[C@H]2OC(C)=O)cc(OC(C)=O)c1OC(C)=O` [Compound 17], the “proteasomal inhibition (in words)” value [1] was “none”.
Work on `O=C(O[C@H]1Cc2ccccc2C[C@H]1OC(=O)c1ccc(F)c(F)c1)c1ccc(F)c(F)c1` [Compound 33] yielded a melting point of 102 to 104 °C.
With `CC(C)C[C@H](NC(=O)[C@H](Cc1ccccc1)NC(=O)c1cnccn1)B(O)O` [Velcade™, bortezomib, reference compound] the “cell proliferation, Velcade alone” value ([2]; varying doses) was “reduced cell proliferation in a dose-dependent manner” and the “sensitivity of OPM1 cell line to treatment, versus ARP cells” value [3] was “more resistant”.
With `CC(=O)Oc1cc(OC(C)=O)c2c(c1)O[C@H](c1cc(OC(C)=O)c(OC(C)=O)c(OC(C)=O)c1)[C@H](OC(=O)c1cc(OC(C)=O)c(OC(C)=O)c(OC(C)=O)c1)C2` [Compound 4, (−)-Epigallocatechin gallate octa-acetate] the “proteasomal inhibition (in words)” value [1] was “none”, the “inhibition in MDA-MB-231 cells growth” value ([4]; 25 to 50 μM, MTT) was 0 to 32% and the inhibition at 50 µM ([4]; absence of DNC, read-out: inhibition of cell proliferation, compound alone) was 42%. The inhibition at 50 µM ([4]; plus 10 μM DNC (COMT inhibitor), read-out: inhibition of cell proliferation in the presence of DNC) was 89% and the “AMPK activation (p-AMPK)” value (AMPK signaling) was “can activate AMPK signaling”.
For `O=C(O[C@H]1Cc2ccccc2C[C@H]1O)c1cc(O)cc(O)c1` [Compound 21], the “inhibition of proteasomal chymotryptic activity (in words)” value [1] was “not active”.
For `O=C(O[C@H]1Cc2ccccc2C[C@H]1OC(=O)c1cc(O)cc(O)c1)c1cc(O)cc(O)c1` [Compound 7], the “inhibition of proteasomal activity” value [5] was 18-51%, the “effect on cell proliferation when combined with Velcade” value [2] was “synergistic inhibitory effect” and the inhibition at 20 µM ([2]; Homo sapiens, ARP cells, 20 μM, read-out: inhibition of cell proliferation) was ~60%.
With `O=C(O[C@H]1Cc2ccccc2C[C@H]1OC(=O)c1cc(O)c(O)c(O)c1)c1cc(O)c(O)c(O)c1` [Compound 5] the “inhibition of proteasomal activity” value [5] was 10-16% and the “effect on cell proliferation when combined with Velcade” value [2] was “antagonized the inhibitory effect”.
